The test system of data set [1] is MDCK. Briefly: Cytotoxicity against MDCK cells at >10 uM after 48 to 72 hrs. Type of data set: cell-based, Canis lupus familiaris. The note with it: dog.
The subject of data set [2] is HEK-293T. Briefly: Cytotoxicity against human 293T cells at >10 uM after 48 to 72 hrs. Format: cell-based.
In data set [3] the target is Neuraminidase (Influenza A virus, UniProt B4URF0). Set-up: species or system Influenza A virus (A/WSN/1933(H1N1)).
Data set [4] is described as follows: Apparent octanol-phosphate buffer partition coefficient, log D of the compound at 1 mg at pH 7.4 after 24 hrs by HPLC analysis. Type of data set: physicochemical.
For data set [5], the system named is Influenza A virus (A/WSN/1933(H1N1)). In words: Antiviral activity against Influenza A virus (A/WSN/1933(H1N1)) infected in BALB/c mouse assessed as increase in survival rate at 1.2 umol/kg/day administered on day 0 intranasally bid prior to viral infection continued for day 1 to day 4 measured on day 14. Format: functional.
Data set [6] has the same test system. In words: Antiviral activity against Influenza A virus (A/WSN/1933(H1N1)) infected in BALB/c mouse assessed as increase in survival rate at 2.6 umol/kg/day, po bid administered on day 0 prior to viral infection continued for day 1 to day 4 measured on day 14. Format: functional, organism-based.
Data set [7] shares this test system. Briefly: Antiviral activity against Influenza A virus (A/WSN/1933(H1N1)) infected in BALB/c mouse assessed as increase in survival rate at 0.12 umol/kg/day administered on day 0 intranasally bid prior to viral infection continued for day 1 to day 4 measured on day 9. Type of data set: functional.
Data set [8] can be described thus: Cellular uptake in MDCK2 cells measured per mg of protein at 100 ug/mL after 120 mins by HPLC analysis. Format: ADME, cell-based, Canis lupus familiaris. As to conditions: dog, mdck-ii, 2 h.
Data set [9] in a line: Cmax in ICR mouse at 10 mg/kg. Type of data set: ADME, organism-based. Set-up: dose 10 mg/kg. As to conditions: in vivo.
A short description of data set [10]: AUC (0 to infinity) in ICR mouse at 10 mg/kg, po. Format: ADME, organism-based. Set-up: time infinity, dose 10 mg/kg, route oral. As to conditions: plasma.
The subject of data set [11] is Mus musculus. Briefly: Bioavailability in ICR mouse at 0.25 mg/kg, iv. Format: ADME, organism-based. As to conditions: in vivo.
Data set [12] is described as follows: AUC (0 to infinity) in ICR mouse at 0.25 mg/kg, iv. Type of data set: ADME, organism-based. Set-up: time infinity, dose 0.25 mg/kg, route intravenous. The note with it: plasma.
A short description of data set [13]: Oral bioavailability in ICR mouse at 10 mg/kg. Format: ADME, organism-based. The note with it: in vivo.
Data set [14] can be described thus: AUC (0 to 2 hrs) in ICR mouse at 0.25 mg/kg, iv. Set-up: time < 2 hr, dose 0.25 mg/kg, route intravenous. Format: ADME, organism-based. As to conditions: plasma.
Data set [15] in a line: First order rate constant associated with the terminal portion of the curve in ICR mouse at 10 mg/kg, po. As to conditions: in vivo. Format: ADME, organism-based. Set-up: dose 10 mg/kg, route oral.
The nature of data set [16]: Tmax in ICR mouse at 10 mg/kg. Type of data set: ADME, organism-based. The note with it: in vivo. Set-up: dose 10 mg/kg.
Data set [17] is described as follows: Terminal half life in ICR mouse at 10 mg/kg, po. Format: ADME, organism-based. Set-up: dose 10 mg/kg, route oral. As to conditions: in vivo, read-out: beta t1/2 (converted).
A short description of data set [18]: AUC (0 to 12 hrs) in ICR mouse at 10 mg/kg, po. Type of data set: ADME, organism-based. The note with it: plasma. Set-up: time < 12 hr, dose 10 mg/kg, route oral.
A short description of data set [19]: Apparent total clearance in ICR mouse at 10 mg/kg. Type of data set: ADME, organism-based. Set-up: dose 10 mg/kg. As to conditions: in vivo, read-out: CLt/F (converted).
Data set [20] in a line: First order rate constant associated with the terminal portion of the curve in ICR mouse at 0.25 mg/kg, iv. Set-up: dose 0.25 mg/kg, route intravenous. As to conditions: in vivo. Format: ADME, organism-based.
Data set [21] concerns Caco-2. Briefly: Permeability across apical to basolateral side in human Caco2 cells at 100 ug/mL after 15 to 120 mins by HPLC analysis. Format: ADME, cell-based. (In general: Passage across Caco-2 layers is used to estimate intestinal permeability.)
The nature of data set [22]: Terminal half life in ICR mouse at 0.25 mg/kg, iv. Type of data set: ADME, organism-based. Set-up: dose 0.25 mg/kg, route intravenous. The note with it: in vivo, read-out: beta t1/2 (converted).

Activity calls are given as the source filed them. The rule behind the calls is not given here. Bounds are passed on as bounds.

Chain of Neuraminidase (B4URF0 whole entry): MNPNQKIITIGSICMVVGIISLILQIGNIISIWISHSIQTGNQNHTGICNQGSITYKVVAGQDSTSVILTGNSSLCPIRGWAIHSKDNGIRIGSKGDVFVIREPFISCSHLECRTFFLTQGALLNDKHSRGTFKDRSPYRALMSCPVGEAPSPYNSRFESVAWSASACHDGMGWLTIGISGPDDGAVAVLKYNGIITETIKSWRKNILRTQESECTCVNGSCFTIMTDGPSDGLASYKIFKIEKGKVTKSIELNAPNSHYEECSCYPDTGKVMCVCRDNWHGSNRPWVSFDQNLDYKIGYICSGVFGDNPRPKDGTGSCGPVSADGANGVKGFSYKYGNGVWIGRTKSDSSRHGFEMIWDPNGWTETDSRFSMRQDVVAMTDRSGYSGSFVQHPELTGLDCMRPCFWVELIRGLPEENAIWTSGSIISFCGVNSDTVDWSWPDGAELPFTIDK

Regarding `CCCCCCOP(=O)(O)C1=C[C@@H](OC(CC)CC)[C@H](NC(C)=O)[C@@H](N)C1`, the Activity entry in data set [1] and in data set [2] was “Non-toxic” in each case. Also, in data set [3], half-maximal inhibition (IC50) required 2.2 nM. Further, the logD (commonly lipophilicity at a set pH, counting ionised and neutral species) at 24 h in [4] amounted to 0.3.
In the case of `CCOP(=O)(O)C1=C[C@@H](OC(CC)CC)[C@H](NC(C)=O)[C@@H](NC(=N)N)C1` [TAMIPHOSPHOR MONOETHYL ESTER], the outcome in [5], in data set [6] and in data set [7] was Active.
As for `CCC(CC)O[C@@H]1C=C(P(=O)(O)OCCCc2ccccc2)C[C@H](NC(=N)N)[C@H]1NC(C)=O`, the outcome in [5], in data set [6] and in data set [7] was Active. Besides, the Activity result in data set [1] and in data set [2] was “Non-toxic” in each case. Besides, the Drug uptake in [8] is on record as below 2000 ng. In addition, inhibition in data set [3] was half-maximal at 3.2 nM (IC50). For the same compound, the logD at 24 h in data set [4] was 0.66.
`CC(=O)N[C@H]1[C@H]([C@H](O)[C@H](O)CO)OC(C(=O)O)=C[C@@H]1NC(=N)N`: the outcome in [7] was inactive.
As to `CCCCOP(=O)(O)C1=C[C@@H](OC(CC)CC)[C@H](NC(C)=O)[C@@H](NC(=N)N)C1`, the Activity entry in data set [1] and in data set [2] was “Non-toxic” throughout. In addition, the IC50 (commonly the midpoint of a concentration-inhibition curve) in data set [3] was 6.7 nM. Moreover, the logD at 24 h in data set [4] was -0.16.
Regarding `CCC(CC)O[C@@H]1C=C(P(=O)(O)OCCCc2c[nH]c3ccccc23)C[C@H](N)[C@H]1NC(C)=O`, the Activity result in [1] and in [2] was “Non-toxic” each time. The compound further registered an IC50 in data set [3] of 1.7 nM.
`CCCCOP(=O)(O)C1=C[C@@H](OC(CC)CC)[C@H](NC(C)=O)[C@@H](N)C1`: the Activity entry in data set [1] and in [2] was “Non-toxic” in each case. Moreover, the IC50 in data set [3] came out at 6.9 nM. In [4], the logD at 24 h was -0.29.
In the case of `CCOP(=O)(O)C1=C[C@@H](OC(CC)CC)[C@H](NC(C)=O)[C@@H](N)C1` [TAMIPHOSPHOR MONOETHYL ESTER], the Activity entry in [1] and in data set [2] was “Non-toxic” throughout.
With `CCC(CC)O[C@@H]1C=C(P(=O)(O)OCCCc2ccccc2)C[C@H](N)[C@H]1NC(C)=O`, the Activity entry in data set [1] and in data set [2] was “Non-toxic” each time. The concentration for half-maximal inhibition (IC50) in [3] stood at 1.8 nM. Also, in data set [4], the logD at 24 h was 0.28.
Consider `CCOC(=O)C1=C[C@@H](OC(CC)CC)[C@H](NC(C)=O)[C@@H](N)C1`, for which the outcome in data set [6] was Active.
`CCCCCCOP(=O)(O)C1=C[C@@H](OC(CC)CC)[C@H](NC(C)=O)[C@@H](NC(=N)N)C1`: the result in data set [5], in data set [6] and in data set [7] was Active. The Activity result in [1] and in data set [2] was “Non-toxic” each time. Further, the peak level in data set [9] (Cmax) was 261 ng/mL. In [8], the Drug uptake is listed as 13500 ng. The AUC(0-inf) (commonly total exposure, with the tail of the curve extrapolated) worked out at 867 ng·h/mL in data set [10] and 173 ng·h/mL in data set [12]. This compound gave a F in data set [11] of 100%. Besides, in data set [13], the bioavailability (in general, the share of a dose that reaches the circulation, judged against a reference dose that is usually intravenous) is 12.6%. Also, the AUC(0-t) – broadly, exposure summed from dosing to a finite time, without extrapolation to infinity – at 2 h in [14] was 169 ng·h/mL. Also, the k el in data set [15] was 0.000167 s⁻¹; in data set [20], 0.000533 s⁻¹. The Tmax (as a rule, the time from dosing to the highest level) in data set [16] is 1 h. Moreover, the results for the half-life in data set [17] and in data set [22] were 1.07 h and 0.36 h, respectively. This compound showed an area under the curve AUC(0-t) at 12 h in [18] of 361 ng·h/mL. Moreover, the IC50 in data set [3] was found to be 4.1 nM. For the same compound, in [19], the CL/F was 184 mL/min/kg. The logD at 24 h in data set [4] came to 0.63. Moreover, the permeability entry in [21] is on record as “permeable”.
